Experiments:
[1] = system: nine human cancer cell lines; assay: Cancer cell viability, MTT assay, summary over the panel; format: cell-based; conditions: range over nine cell lines, 48 h
Protocol: The following human cancer cell lines were obtained from the American Type Culture Collection (Manassas, VA, USA): lung (A549), prostate (DU145 and PC3), colon (HCT116 and HT-29), cervix (HeLa), hepatocellular liver (HepG2), breast (MCF-7), and pancreatic cancer (PANC-1). These cells were cultured in RPMI 1640 medium supplemented with 10% fetal bovine serum, penicillin (100 units/mL), streptomycin (100 µg/mL), and 1.6 mg/mL NaHCO3 at 37°C in a humid atmosphere of 5% CO2/95% air. For the cell viability assay, cells were seeded at 1×10^3 cells/well in a 96-well microplate with various concentrations of the test compounds, and incubated for 48 h. MTT (3-(4,5-dimethylthiazol-2-yl)-2,5-diphenyl tetrazolium bromide) solution was added to a final concentration 0.6 mg/mL in Milli-Q purified water for 2 h, after which time the medium was discarded and the cells lysed in DMSO. A540 was then measured in a microplate reader (Model 680, Bio-Rad Laboratories, Hercules, CA, USA).

[2] = Stability under basic conditions (Triton B, UV-vis); format: physicochemical; conditions: 1 equivalent Triton B in 1,4-dioxane and MeOH, 1.1×10^−3 M, 25°C
Protocol: A 2.2×10^−2 M solution of Triton B in MeOH was added to a 2.2×10^−2 M solution of each sample in 1,4-dioxane. Then, the mixture was diluted with 1,4-dioxane to a concentration of 1.1×10^−3 M. Then, the stability of each compound was monitored by UV-vis spectroscopy. UV-vis spectra were measured at 25°C on a UV-vis spectrophotometer (JASCO V-650, Tokyo, Japan). For comparison, UV-vis spectra of 1.1×10^−3 M solution of C18:1-acyl plumbagin (2f), and C18:1-acyl juglone (5f) in 1,4-dioxane and MeOH (19/1, v/v) were measured.

[3] = molecular target: Mouse IMP dehydrogenase (type II) (Mus musculus, UniProt P24547); assay: Other DNA metabolic enzyme assay; format: biochemical
Protocol: (§1) The activities of calf primase of pol α, T7 RNA polymerase, mouse inosine-5′-[…] (IMP) dehydrogenase (type II), T4 polynucleotide kinase, and bovine deoxyribonuclease I were measured in standard assays according to the manufacturer's specifications, as described by Tamiya-Koizumi et al., Nakayama and Saneyoshi, Mizushina et al., Soltis et al., and Lu and Sakaguchi, respectively.

[4] = molecular target: Calf primase of pol α (Bos taurus, UniProt A0A3Q1MF00); assay: Other DNA metabolic enzyme assay; format: biochemical
Protocol: as §1

[5] = molecular target: T1, Bovine deoxyribonuclease I (Bos taurus, UniProt P00639); assay: Other DNA metabolic enzyme assay; format: biochemical
T1 construct: Bovine pancreas deoxyribonuclease I was obtained from Stratagene Cloning Systems; purchased Stratagene Cloning Systems (La Jolla, CA, USA); host or cells: bovine pancreas
Excerpt: (§2) Pol α was purified from calf thymus by immunoaffinity column chromatography as described by Tamai et al.. Recombinant rat pol β was purified from Escherichia coli JMpβ5 as described by Date et al.. The human pol γ catalytic gene was cloned into pFastBac. Histidine-tagged enzyme was expressed using the BACTO-BAC HT Baculovirus Expression System according to the manufacturer's instructions (Life Technologies, Frederick, MD, USA) and purified using ProBound resin (Invitrogen Japan, Tokyo Japan). Human pols δ and ε were purified by nuclear fractionation of human peripheral blood cancer cells (Molt-4) using the second subunit of pol δ and ε-conjugated affinity column chromatography, respectively. A truncated form of human pol η (residues 1–511) tagged with His6 at its C-terminal was expressed in E. coli cells and purified as described by Kusumoto et al.. A recombinant mouse pol ι tagged with His6 at its C-terminal was expressed and purified by Ni–NTA column chromatography. A truncated form of pol κ (residues 1–560) with 6× His-tags attached at the C-terminus was overexpressed in E. coli and purified as described by Ohashi et al.. Recombinant human His-pol λ was overexpressed and purified according to a method described by Shimazaki et al.. Recombinant human His-pol μ was overexpressed in E. coli BL21 and purified using Glutathione Sepharose 4B (GE Healthcare Bio-Science Corp., Piscataway, NJ, USA) column chromatography according to the method for pol λ preparation by Shimazaki et al.. Pol α from a higher plant, cauliflower, was purified from the inflorescence structure according to the methods outlined by Sakaguchi et al.. Recombinant rice (Oryza sativa L. cv. Nipponbare) pol λ tagged with His6 at the C-terminus was expressed in E. coli and purified as described by Uchiyama et al.. Calf TdT, Taq pol, T4 pol, T7 RNA polymerase, and T4 polynucleotide kinase were purchased from Takara Bio Inc. (Kyoto, Japan). The Klenow fragment of pol I from E. coli was purchased from Worthington Biochemical Corp. (Freehold, NJ, USA). Bovine pancreas deoxyribonuclease I was obtained from Stratagene Cloning Systems (La Jolla, CA, USA).
as §1

[6] = molecular target: T2, T7 RNA polymerase (Escherichia phage T7, UniProt P00573); assay: Other DNA metabolic enzyme assay; format: biochemical
T2 construct: purchased Takara Bio Inc. (Kyoto, Japan)
Excerpt: as §2, §1

[7] = molecular target: T3, T4 polynucleotide kinase (Enterobacteria phage T4, UniProt P06855); assay: Other DNA metabolic enzyme assay; format: biochemical
T3 construct: purchased Takara Bio Inc. (Kyoto, Japan)
Excerpt: as §2, §1

T3 sequence (P06855 whole entry): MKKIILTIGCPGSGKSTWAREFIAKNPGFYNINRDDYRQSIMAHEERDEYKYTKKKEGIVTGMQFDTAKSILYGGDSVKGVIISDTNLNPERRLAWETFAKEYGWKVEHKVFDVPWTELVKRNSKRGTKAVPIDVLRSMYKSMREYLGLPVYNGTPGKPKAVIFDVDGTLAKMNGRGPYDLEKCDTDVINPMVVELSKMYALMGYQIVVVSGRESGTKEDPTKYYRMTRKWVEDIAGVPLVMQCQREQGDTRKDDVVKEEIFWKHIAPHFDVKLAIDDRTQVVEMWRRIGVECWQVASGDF
T2 sequence (P00573 whole entry): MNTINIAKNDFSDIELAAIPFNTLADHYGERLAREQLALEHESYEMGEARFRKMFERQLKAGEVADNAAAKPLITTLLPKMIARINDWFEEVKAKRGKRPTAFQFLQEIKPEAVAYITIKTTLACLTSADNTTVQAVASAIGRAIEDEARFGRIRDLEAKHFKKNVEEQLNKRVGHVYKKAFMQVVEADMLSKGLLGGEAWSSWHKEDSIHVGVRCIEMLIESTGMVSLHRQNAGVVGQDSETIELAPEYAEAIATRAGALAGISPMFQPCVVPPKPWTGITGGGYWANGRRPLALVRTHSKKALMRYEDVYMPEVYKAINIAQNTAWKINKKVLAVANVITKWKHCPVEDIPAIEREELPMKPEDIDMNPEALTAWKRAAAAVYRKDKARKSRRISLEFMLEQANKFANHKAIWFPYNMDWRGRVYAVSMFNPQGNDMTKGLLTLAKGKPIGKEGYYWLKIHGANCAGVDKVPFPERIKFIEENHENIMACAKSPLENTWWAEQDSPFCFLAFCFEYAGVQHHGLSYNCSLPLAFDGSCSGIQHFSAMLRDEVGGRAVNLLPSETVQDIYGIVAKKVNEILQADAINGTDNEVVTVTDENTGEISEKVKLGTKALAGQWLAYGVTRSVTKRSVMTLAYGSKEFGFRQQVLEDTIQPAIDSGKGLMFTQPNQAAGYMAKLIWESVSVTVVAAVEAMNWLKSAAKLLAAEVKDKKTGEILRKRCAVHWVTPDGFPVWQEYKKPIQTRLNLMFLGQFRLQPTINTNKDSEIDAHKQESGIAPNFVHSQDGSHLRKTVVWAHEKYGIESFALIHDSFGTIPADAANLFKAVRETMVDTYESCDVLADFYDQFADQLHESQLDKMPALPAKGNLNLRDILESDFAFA
Calf primase of pol α, sequence (A0AAA9THK8 entry or part of it): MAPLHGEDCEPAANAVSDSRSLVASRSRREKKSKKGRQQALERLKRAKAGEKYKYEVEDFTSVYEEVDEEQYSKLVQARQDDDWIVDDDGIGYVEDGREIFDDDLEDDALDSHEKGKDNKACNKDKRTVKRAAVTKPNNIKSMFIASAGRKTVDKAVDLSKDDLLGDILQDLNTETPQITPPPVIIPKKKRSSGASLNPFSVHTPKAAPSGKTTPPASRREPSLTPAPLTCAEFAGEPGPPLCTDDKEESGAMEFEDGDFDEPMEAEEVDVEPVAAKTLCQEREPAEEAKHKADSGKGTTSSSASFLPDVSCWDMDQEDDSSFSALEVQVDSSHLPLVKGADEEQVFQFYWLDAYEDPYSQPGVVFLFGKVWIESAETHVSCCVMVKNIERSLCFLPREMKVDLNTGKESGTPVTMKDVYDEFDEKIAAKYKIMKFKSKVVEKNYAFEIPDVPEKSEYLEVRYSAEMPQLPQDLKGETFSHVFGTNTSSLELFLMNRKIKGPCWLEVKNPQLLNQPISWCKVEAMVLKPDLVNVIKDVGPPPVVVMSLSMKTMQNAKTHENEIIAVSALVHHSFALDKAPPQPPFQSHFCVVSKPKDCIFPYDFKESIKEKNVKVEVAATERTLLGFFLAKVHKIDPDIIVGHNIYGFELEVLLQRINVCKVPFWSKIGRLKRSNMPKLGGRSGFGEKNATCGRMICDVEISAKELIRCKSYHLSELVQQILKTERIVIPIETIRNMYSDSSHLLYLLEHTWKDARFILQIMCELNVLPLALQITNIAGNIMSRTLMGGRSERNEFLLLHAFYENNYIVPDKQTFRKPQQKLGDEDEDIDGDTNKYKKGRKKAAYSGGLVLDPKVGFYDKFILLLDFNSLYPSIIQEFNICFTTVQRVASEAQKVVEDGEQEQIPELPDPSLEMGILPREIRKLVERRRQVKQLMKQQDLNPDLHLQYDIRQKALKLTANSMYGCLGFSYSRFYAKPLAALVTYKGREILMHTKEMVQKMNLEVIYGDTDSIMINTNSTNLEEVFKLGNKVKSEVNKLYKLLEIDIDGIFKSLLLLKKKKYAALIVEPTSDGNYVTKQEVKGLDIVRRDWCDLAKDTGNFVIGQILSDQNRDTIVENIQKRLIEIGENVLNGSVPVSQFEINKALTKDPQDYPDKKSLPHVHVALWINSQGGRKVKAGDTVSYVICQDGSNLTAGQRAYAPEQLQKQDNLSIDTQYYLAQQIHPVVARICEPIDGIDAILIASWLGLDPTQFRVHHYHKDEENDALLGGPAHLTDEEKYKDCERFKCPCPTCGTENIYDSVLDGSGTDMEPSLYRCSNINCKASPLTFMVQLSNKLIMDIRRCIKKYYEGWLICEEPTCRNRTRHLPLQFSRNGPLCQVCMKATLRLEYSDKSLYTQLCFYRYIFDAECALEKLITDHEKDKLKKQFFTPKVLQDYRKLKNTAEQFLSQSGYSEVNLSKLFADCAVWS
Calf primase of pol α, sequence (A0JNF4 entry or part of it, further chain): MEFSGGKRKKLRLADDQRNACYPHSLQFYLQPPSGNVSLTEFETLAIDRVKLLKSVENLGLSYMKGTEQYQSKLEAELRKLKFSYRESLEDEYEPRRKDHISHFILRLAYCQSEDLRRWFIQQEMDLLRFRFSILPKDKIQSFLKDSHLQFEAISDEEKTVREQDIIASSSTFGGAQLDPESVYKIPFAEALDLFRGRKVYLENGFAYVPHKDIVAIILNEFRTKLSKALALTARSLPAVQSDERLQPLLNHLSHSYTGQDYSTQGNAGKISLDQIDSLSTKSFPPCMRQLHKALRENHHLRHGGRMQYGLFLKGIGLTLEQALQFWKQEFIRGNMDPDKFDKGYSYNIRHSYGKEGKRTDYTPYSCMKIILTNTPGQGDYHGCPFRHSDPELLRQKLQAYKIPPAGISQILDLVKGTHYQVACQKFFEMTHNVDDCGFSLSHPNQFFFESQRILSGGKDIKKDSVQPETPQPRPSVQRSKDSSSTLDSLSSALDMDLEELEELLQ
Calf primase of pol α, sequence (A0A3Q1MF00 entry or part of it): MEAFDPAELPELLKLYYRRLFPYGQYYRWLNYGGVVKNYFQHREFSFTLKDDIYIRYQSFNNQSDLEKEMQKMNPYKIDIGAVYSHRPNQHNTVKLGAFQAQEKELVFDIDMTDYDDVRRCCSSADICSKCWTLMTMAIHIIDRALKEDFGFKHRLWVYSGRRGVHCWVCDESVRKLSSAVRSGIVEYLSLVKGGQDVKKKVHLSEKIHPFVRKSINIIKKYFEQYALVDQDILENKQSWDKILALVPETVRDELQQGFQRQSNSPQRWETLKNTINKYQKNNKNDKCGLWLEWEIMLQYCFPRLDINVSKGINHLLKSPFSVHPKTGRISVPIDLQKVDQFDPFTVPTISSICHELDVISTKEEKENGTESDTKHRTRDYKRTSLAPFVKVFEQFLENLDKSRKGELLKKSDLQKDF
Calf primase of pol α, sequence (Q58D13 whole entry, further chain): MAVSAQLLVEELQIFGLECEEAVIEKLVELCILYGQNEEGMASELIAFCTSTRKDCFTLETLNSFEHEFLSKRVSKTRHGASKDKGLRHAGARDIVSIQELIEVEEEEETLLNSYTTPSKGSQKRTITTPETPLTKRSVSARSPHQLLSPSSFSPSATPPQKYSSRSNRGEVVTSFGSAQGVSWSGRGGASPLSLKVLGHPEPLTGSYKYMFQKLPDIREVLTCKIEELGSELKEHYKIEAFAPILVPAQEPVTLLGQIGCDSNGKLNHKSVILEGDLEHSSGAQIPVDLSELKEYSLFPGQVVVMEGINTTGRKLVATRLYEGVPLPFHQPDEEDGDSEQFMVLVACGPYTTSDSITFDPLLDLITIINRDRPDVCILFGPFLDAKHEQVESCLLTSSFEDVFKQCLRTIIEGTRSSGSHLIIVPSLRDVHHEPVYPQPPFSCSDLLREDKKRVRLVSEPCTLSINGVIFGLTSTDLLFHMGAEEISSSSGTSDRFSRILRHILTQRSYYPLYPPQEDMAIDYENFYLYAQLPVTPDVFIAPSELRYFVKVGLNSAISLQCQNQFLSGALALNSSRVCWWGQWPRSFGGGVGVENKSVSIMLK
Mouse IMP dehydrogenase (type II), sequence (P24547 whole entry): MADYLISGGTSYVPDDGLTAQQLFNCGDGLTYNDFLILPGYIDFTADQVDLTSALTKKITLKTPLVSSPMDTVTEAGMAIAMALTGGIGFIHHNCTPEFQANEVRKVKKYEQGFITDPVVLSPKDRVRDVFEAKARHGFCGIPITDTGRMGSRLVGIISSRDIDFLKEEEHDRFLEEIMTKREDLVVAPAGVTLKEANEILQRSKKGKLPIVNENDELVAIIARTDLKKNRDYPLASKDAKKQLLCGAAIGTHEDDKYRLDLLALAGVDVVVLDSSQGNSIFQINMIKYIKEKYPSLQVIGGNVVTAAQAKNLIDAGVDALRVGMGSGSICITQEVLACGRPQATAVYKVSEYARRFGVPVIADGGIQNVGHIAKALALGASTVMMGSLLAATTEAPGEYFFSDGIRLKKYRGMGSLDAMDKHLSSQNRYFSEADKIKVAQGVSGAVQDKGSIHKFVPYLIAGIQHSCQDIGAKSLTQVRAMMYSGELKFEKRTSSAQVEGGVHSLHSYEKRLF
T1 sequence (P00639 23-282): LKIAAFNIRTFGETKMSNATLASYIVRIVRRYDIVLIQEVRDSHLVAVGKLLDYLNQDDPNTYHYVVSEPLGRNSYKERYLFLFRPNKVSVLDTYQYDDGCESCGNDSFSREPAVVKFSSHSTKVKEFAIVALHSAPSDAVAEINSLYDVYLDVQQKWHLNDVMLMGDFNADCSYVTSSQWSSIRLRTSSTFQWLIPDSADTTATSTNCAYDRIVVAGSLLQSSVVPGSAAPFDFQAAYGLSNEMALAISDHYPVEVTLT

For `CCCCCCCC/C=C\CCCCCCCC(=O)Oc1cccc2c1C(=O)C=C(C)C2=O` [2f, 5-O-oleoyl-2-methyl-1,4-naphthoquinone], the LD50 values [1] was 2.9 to 21.0 µM, the “stability under basic conditions (UV spectra)” value [2] was “Almost no changes in UV spectra” and the “effect on enzyme activity (in words)” value [3] was “did not inhibit”. The IC50 ([3]; 0.05 units enzyme) was greater than 100 µM, the “effect on enzyme activity (in words)” value [4] was “did not inhibit” and the IC50 ([4]; 0.05 units enzyme) was greater than 100 µM. The “effect on enzyme activity (in words)” value [5] was “did not inhibit”, the IC50 ([5]; 0.05 units enzyme) was greater than 100 µM and the “effect on enzyme activity (in words)” value [6] was “did not inhibit”. For the same molecule, the IC50 ([6]; 0.05 units enzyme) was greater than 100 µM, the “effect on enzyme activity (in words)” value [7] was “did not inhibit” and the IC50 ([7]; 0.05 units enzyme) was greater than 100 µM.

Source: publication PMC3919815, “Anti-Tumor Effects of Novel 5-O-Acyl Plumbagins Based on the Inhibition of Mammalian DNA Replicative Polymerase Activity” (PLoS ONE, 2014)
